# Data from US10316017B2, “COT modulators and methods of use thereof” (Gilead Sciences, Inc., priority 2015, dated 2019).
# Key:
# [1] = target: T1, human Cot catalytic domain (30-397 amino acids) (Homo sapiens, UniProt P41279); assay: High Throughput Cot Biochemical Assay (KinEASE TR-FRET); conditions: Cot biochemical HTRF (KinEASE TR-FRET) assay; read-out: IC50 HTRF
# T1 construct: Purified recombinant human Cot catalytic domain (30-397 amino acids) was purchased from Cama Biosciences; purchased Cama Biosciences (so in the source)
# How it was run: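 First, purified human Cot (aa 30-397) at 5 nM phosphorylates an XL665-labeled STK3 peptide (1 μM) at 400 μM ATP, pH 7.0, 0.1% DMSO. Then a europium-conjugated phospho-specific antibody binds the product, giving the TR-FRET signal.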
# [2] = tested on: TNFα production in LPS-stimulated human monocytes; assay: Cot Monocyte TNFα Cell Based Assay; conditions: Homo sapiens, Monocyte, TNFα in LPS-stimulated human monocytes; read-out: EC50 TNF
# How it was run: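 5,000 cells/well; cmpd 1 h, 37 °C, 0.5% DMSO final; LPS 50 pg/ml, 4 h, 37 °C; media TNFα by HTRF sandwich (cryptate/XL665), RT overnight; % control vs unstimulated/stimulated wells.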
# T1 sequence (P41279 30-397): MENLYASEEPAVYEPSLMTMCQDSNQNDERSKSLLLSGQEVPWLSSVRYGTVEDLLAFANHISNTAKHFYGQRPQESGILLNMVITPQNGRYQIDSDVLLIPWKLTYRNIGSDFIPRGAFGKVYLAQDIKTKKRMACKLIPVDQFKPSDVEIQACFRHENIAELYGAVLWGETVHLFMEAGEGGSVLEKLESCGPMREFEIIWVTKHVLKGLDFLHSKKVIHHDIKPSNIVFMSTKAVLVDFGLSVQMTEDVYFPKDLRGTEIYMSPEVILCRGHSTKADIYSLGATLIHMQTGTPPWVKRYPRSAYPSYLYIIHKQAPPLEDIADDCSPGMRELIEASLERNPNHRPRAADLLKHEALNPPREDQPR
IC50 [1],EC50 [2],SMILES
18 nM,1220 nM,"N#Cc1cnc2c(Cl)cc(N[C@@H](c3ccc(F)cc3)c3cn(CCF)nn3)cc2c1Nc1cnc(F)c(F)c1 [Example 493, (S)-8-chloro-4-((5,6-difluoropyridin-3-yl)amino)-6-(((1-(2-fluoroethyl)-1H-1,2,3-triazol-4-yl)(4-fluorophenyl)methyl)amino) quinoline-3-carbonitrile]"
47 nM,585 nM,"N#Cc1cnc2c(Cl)cc(N[C@@H](c3ccc(Cl)cc3)c3cn(C4COC4)nn3)cc2c1Nc1cnc(F)c(F)c1 [Example 494, (S)-8-chloro-6-(((4-chlorophenyl)(1-(oxetan-3-yl)-1H-1,2,3-triazol-4-yl)methyl)amino)-4-((5,6-difluoropyridin-3-yl)amino)quinoline-3-carbonitrile]"
32 nM,641 nM,"N#Cc1cnc2c(Cl)cc(N[C@@H](c3ccc(Cl)cc3)c3c[nH]nn3)cc2c1Nc1cnc(F)c(F)c1 [Example 495, (S)-8-chloro-6-(((4-chlorophenyl)(1H-1,2,3-triazol-4-yl)methyl)amino)-4-((5,6-difluoropyridin-3-yl)amino) quinoline-3-carbonitrile]"
4 nM,1840 nM,"CC(=O)N(C)c1cccc([C@H](Nc2cc(Cl)c3ncc(C#N)c(Nc4cnc(F)c(F)c4)c3c2)c2c[nH]nn2)c1 [Example 496, (S)-N-(3-(((8-chloro-3-cyano-4-((5,6-difluoropyridin-3-yl)amino)quinolin-6-yl)amino)(1H-1,2,3-triazol-4-yl)methyl)phenyl)-N-methylacetamide]"
26 nM,985 nM,"N#Cc1cnc2c(Cl)cc(N[C@@H](c3ccccc3)c3cn([C@@H]4CCN(C5COC5)C[C@H]4O)nn3)cc2c1Nc1ccc(F)c(Cl)c1 [Example 497, 8-chloro-4-((3-chloro-4-fluorophenyl)amino)-6-(((S)-(1-((3R,4R)-3-hydroxy-1-(oxetan-3-yl)piperidin-4-yl)-1H-1,2,3-triazol-yl)(phenyl)methyl)amino)quinoline-3-carbonitrile]"
8 nM,520 nM,"N#Cc1cnc2c(Cl)cc(N[C@@H](c3cccc(-c4ncco4)c3)c3c[nH]nn3)cc2c1Nc1cnc(F)c(F)c1 [Example 498, (S)-8-chloro-4-((5,6-difluoropyridin-3-yl)amino)-6-(((3-(oxazol-2-yl)phenyl)(1H-1,2,3-triazol-4-yl)methyl)amino) quinoline-3-carbonitrile]"
6 nM,985 nM,"N#Cc1cnc2c(Cl)cc(N[C@@H](c3cccc(-c4ncco4)c3)c3cn(C4COC4)nn3)cc2c1Nc1cnc(F)c(F)c1 [Example 499, (S)-8-chloro-4-((5,6-difluoropyridin-3-yl)amino)-6-(((3-(oxazol-2-yl)phenyl) (1-(oxetan-3-yl)-1H-1,2,3-triazol-4-yl)methyl)amino)quinoline-3-carbonitrile]"
92 nM,2160 nM,"N#Cc1cnc2c(Cl)cc(N[C@H](c3cn(C4COC4)nn3)c3c(F)cc(F)cc3F)cc2c1Nc1cnc(F)c(F)c1 [Example 500, (S)-8-chloro-4-((5,6-difluoropyridin-3-yl)amino)-6-(((1-(oxetan-3-yl)-1H-1,2,3-triazol-4-yl)(2,4,6-trifluorophenyl)methyl)amino)quinoline-3-carbonitrile]"
94 nM,2140 nM,"N#Cc1cnc2c(Cl)cc(N[C@H](c3cn(C4COC4)nn3)c3ccccc3C(F)(F)F)cc2c1Nc1cnc(F)c(F)c1 [Example 501, (S)-8-chloro-4-((5,6-difluoropyridin-3-yl)amino)-6-(((1-(oxetan-3-yl)-1H-1,2,3-triazol-4-yl)(2-(trifluoromethyl)phenyl)methyl)amino)quinoline-3-carbonitrile]"
160 nM,1950 nM,"N#Cc1cnc2c(Cl)cc(N[C@H](c3c[nH]nn3)c3ccccc3C(F)(F)F)cc2c1Nc1cnc(F)c(F)c1 [Example 502, (S)-6-(((1H-1,2,3-triazol-4-yl)(2-(trifluoromethyl)phenyl)methyl)amino)-8-chloro-4-((5,6-difluoropyridin-3-yl)amino)quinoline-3-carbonitrile]"
98 nM,1690 nM,"N#Cc1cnc2c(Cl)cc(N[C@H](c3c[nH]nn3)c3c(F)cc(F)cc3F)cc2c1Nc1cnc(F)c(F)c1 [Example 503, (S)-6-(((1H-1,2,3-triazol-4-yl)(2,4,6-trifluorophenyl)methyl)amino)-8-chloro-4-((5,6-difluoropyridin-3-yl)amino)quinoline-3-carbonitrile]"
1780 nM,8510 nM,"CC(C)(C)N1CCC(n2cc([C@@H](Nc3cc(Cl)c4ncc(C#N)c(N)c4c3)c3ccccc3)nn2)CC1 [Example 504, (S)-4-amino-6-(((1-(1-(tert-butyl)piperidin-4-yl)-1H-1,2,3-triazol-4-yl)(phenyl)methyl)amino)-8-chloroquinoline-3-carbonitrile]"
240 nM,2620 nM,"CC(C)(C)N1CCC(n2cc([C@@H](Nc3cc(Cl)c4ncc(C#N)c(Nc5ccc(F)c(C(F)(F)F)c5)c4c3)c3ccccc3)nn2)CC1 [Example 505, (S)-6-(((1-(1-(tert-butyl)piperidin-4-yl)-1H-1,2,3-triazol-4-yl)(phenyl)methyl)amino)-8-chloro-4-((4-fluoro-3-(trifluoromethyl)phenyl)amino)quinoline-3-carbonitrile]"
1690 nM,5290 nM,"CC(C)(C)N1CCC(n2cc([C@@H](Nc3cc(Cl)c4ncc(C#N)c(N[C@@H]5CCOc6ccccc65)c4c3)c3ccccc3)nn2)CC1 [Example 506, 6-(((S)-(1-(1-(tert-butyl)piperidin-4-yl)-1H-1,2,3-triazol-4-yl)(phenyl)methyl)amino)-8-chloro-4-(((R)-chroman-4-yl)amino)quinoline-3-carbonitrile]"
741 nM,8510 nM,"CC(C)(C)N1CCC(n2cc([C@@H](Nc3cc(Cl)c4ncc(C#N)c(N[C@H]5CCOc6ccccc65)c4c3)c3ccccc3)nn2)CC1 [Example 507, 6-(((S)-(1-(1-(tert-butyl)piperidin-4-yl)-1H-1,2,3-triazol-4-yl)(phenyl)methyl)amino)-8-chloro-4-(((S)-chroman-4-yl)amino)quinoline-3-carbonitrile]"
5350 nM,> 10000 nM,"CCC(Nc1c(C#N)cnc2c(Cl)cc(N[C@@H](c3ccccc3)c3cn(C4CCN(C(C)(C)C)CC4)nn3)cc12)C1CCOCC1 (stereo partly drawn) [Example 508, 6-(((S)-(1-(1-(tert-butyl)piperidin-4-yl)-1H-1,2,3-triazol-4-yl)(phenyl)methyl)amino)-8-chloro-4-((1-(tetrahydro-2H-pyran-4-yl)propyl)amino)quinoline-3-carbonitrile]"
206 nM,2990 nM,"CC1CC(Nc2c(C#N)cnc3c(Cl)cc(N[C@@H](c4ccccc4)c4cn(C5CCN(C(C)(C)C)CC5)nn4)cc23)CC(C)O1 (stereo partly drawn) [Example 509, 6-(((S)-(1-(1-(tert-butyl)piperidin-4-yl)-1H-1,2,3-triazol-4-yl)(phenyl)methyl)amino)-8-chloro-4-((2,6-dimethyltetrahydro-2H-pyran-4-yl)amino) quinoline-3-carbonitrile]"
